Source: US8404664B2, “Phosphonated Rifamycins and uses thereof for the prevention and treatment of bone and joint infections” (Targanta Therapeutics, Inc., priority 2005, dated 2013)
≈ marks a conversion by molar mass, not a printed value. Where “and” joins values, the source holds several entries; their conditions need not be identical. Identical values can stand only once.

How the values were obtained:
S. aureus ATCC 13709 [1] = assay: Antibacterial susceptibility (MIC), NCCLS broth microdilution; assay type: cell-based; details: for Antibacterial activity (in words, summary of Table 1): summary over the strains of Table 1; for MIC: Staphylococcus aureus, ATCC13709, read-out: Minimum inhibitory concentration, S. aureus ATCC 13709
Description: (§1) Susceptibility of S. aureus strains to the known antibiotics and synthesized compounds was determined by following the guidelines set by NCCLS (M26-A). Compounds were diluted two-fold serially in DMSO and transferred to cation-adjusted Mueller Hinton broth (CAMHB; Becton Dickinson). 50 μL of compounds diluted in CAMHB was mixed with 100 μL of bacteria diluted in CAMHB in 96-well microtiter plates. The final concentration of micro-organisms in the assay was 5×10^5 c.f.u. per mL and the final concentration of DMSO in the assay was 1.25%. Assays were set up in duplicate and incubated at 37° C. for 18 h. The lowest concentration of compound that inhibited visible growth was reported as the minimum inhibitory concentration (MIC).

[2] = system: S. aureus ATCC 43300 (Fluoroquinolone sensitive MRSA); assay: as above; assay type: cell-based; details: for MIC: Staphylococcus aureus, read-out: Minimum inhibitory concentration, S. aureus ATCC 43300
Description: as §1

[3] = system: S. aureus BK85 (Fluoroquinolone resistant MRSA); assay: as above; assay type: cell-based; details: for MIC: Staphylococcus aureus, read-out: Minimum inhibitory concentration, S. aureus BK85
Description: as §1

S. aureus RN4220 = assay: as above; assay type: cell-based; details: CAMHB, 37° C., 18 h; for MIC: Staphylococcus aureus, RN4220, read-out: Minimum inhibitory concentration, S. aureus RN4220
Description: as §1

[4] = system: S. aureus ATCC 13709 Novobiocin and Rifampicin resistant variant; assay: microbe, parasite or virus in culture; assay type: cell-based; details: for Minimum inhibitory concentration, S. aureus ATCC 13709 variant: Novobiocin and Rifampicin resistant variant
Description: as §1

S. aureus ATCC 13709 [5] = assay: Antibacterial susceptibility (MIC) in the presence of serum; assay type: cell-based; details: for MIC: Staphylococcus aureus, ATCC13709, 18 h
Description: as §1
Susceptibility testing experiments were also carried out in the presence of serum.
These experiments were carried out similar to the susceptibility testing with the following modifications. 75 μL of compounds diluted in CAMHB was mixed with 75 μL of bacteria diluted in 100% serum from any given source (commercial pooled mouse serum (MS) and human serum (HS), Equitech-Bio Inc.) or diluted in 8% purified human serum albumin (HSA) (Calbiochem). The final concentration of animal serum in the assay was 50% and the final concentration of purified human serum albumin in the assay was 4%; the concentrations of all other components were identical to those described for susceptibility testing.

[6] = system: E. coli LBB925 (tolC mutant); assay: Antibacterial susceptibility (MIC), NCCLS broth microdilution; assay type: cell-based; details: for Minimum inhibitory concentration, E. coli LBB925: tolC mutant; for MIC: Escherichia coli, read-out: Minimum inhibitory concentration, E. coli LBB925
[7] = Regeneration of drug from bone powder-bound prodrug; assay type: in vitro ADME; details: for % Conversion of bone-bound prodrug to parent drug: 24 h incubation, 37° C.
Description: Amounts of parent drug “regenerated” from the phosphonated prodrug were measured as follows. Washed bone powder-bound prodrugs from the above experiment were resuspended in 400 μL PBS+2% DMSO or in 400 μL 50% (v/v in PBS+2% DMSO) human or rat serum. The suspension was incubated overnight at 37° C., centrifuged at 13,000 rpm for 2 min and the supernatant was recovered. The amount of regenerated parent drug in the supernatant was determined by measurements using the microbiological assay that was previously described for the prodrugs themselves. The amount of prodrug was deduced from standard curves of known amounts of parent drug that were used as reference for each experiment.

[8] = system: S. aureus ATCC 13709 Novobiocin resistant mutant (bone infection); assay: Prophylactic efficacy in rat model of S. aureus bone infection; assay type: in vivo; details: rat tibia 24 h postinfection
Description: Specifically, a spontaneous Novobiocin resistant mutant strain of S. aureus ATCC 13709 (a clinical osteomyelitis isolate), was grown overnight at 37° C. in brain heart infusion broth (BHIB). After 16 h of growth, cells were subcultured into fresh BHIB and incubated for 4 to 5 h at 37° C. The cells were washed twice with phosphate-buffered saline (PBS) and resuspended in BHIB supplemented with 10% (vol./vol.) fetal bovine serum at a density of approximately 10^10 colony forming units (CFU)/ml (based upon turbidimetry). The suspension was aliquoted and a portion was used to check the CFU count. The culture was stored frozen (−80° C.) and was used without subculture. For use as an inoculum the culture was thawed, diluted in PBS and kept in an ice bath until it was used.
Animals were infected as described by O'Reilly et al. (Antimicrobial Agents and Chemotherapy (1992), 36(12): 2693-97) to generate the bone infection. Female CD rats (age, 57 to 70 days; n=5/group; Charles River, St-Constant, Canada) were anaesthetized by isofluorane before and during the surgery. Following complete induction of anesthesia, the rat was placed ventral side up and hair was shaved from the surgical site. The skin over the leg was cleaned and disinfected (proviodine-ethanol 70%). A longitudinal incision below the knee joint was made in the sagital plane. The incision was made over the bone below the “knee joint” (tibia head or condyle) but not completely extending to the ankle. A high speed drill fitted with a 2 mm bulb bit was used to drill a hole into the medullar cavity of the tibia. Rats were injected intra-tibially with 0.05 ml 5% sodium morrhuate (sclerosing agent) and then with 0.05 ml of S. aureus suspension (ca. 2×10^7 CFU/rat). The hole was sealed by applying a small amount of dry dental cement which immediately absorbs fluids and adheres to the site. The wound was closed using 3 metal skin clips. Moxifloxacin (as a positive control) was injected once at 10 mg/kg intravenously 1 h postinfection in saline, while the Rifamycin derived prodrugs (prepared in 0.9% saline) were injected at the dose indicated in Table 3 as a single intravenous bolus at different time points prior to the infection.
Infected rats were sacrificed by CO2 asphyxiation 24 h postinfection to monitor the bacterial CFU count. Infected tibiae were removed, dissected free of soft tissue, and weighed. The bones were ground, resuspended in 5 ml 0.9% NaCl, serially diluted and processed for quantitative cultures. For compounds 50, 68 and 81, 1 ml of the 0.9% NaCl solution was added to 50 mg of charcoal before serial dilutions. Treatment efficacy was measured in terms of Log viable bacteria (Log CFU per gram of bone). […] The limit of detection is 2 Log CFU. […] Differences were considered significant when the P value was <0.05 when comparing treated infected animals to the untreated infected ones. The doses used, the amount of time separating the treatment from the time of infection and the treatment outcomes are shown in Table 3.

[9] = read-out: Minimum inhibitory concentration, S. aureus ATCC 13709 + 50% Human Serum
[10] = read-out: Minimum inhibitory concentration, S. aureus ATCC 13709 + 50% Mouse Serum
[11] = read-out: Minimum inhibitory concentration, S. aureus ATCC 13709 + 50% Rat Serum

Compound | Minimum inhibitory concentration, S. aureus ATCC 13709 (S. aureus ATCC 13709 [1]) [µg/mL] | Antibacterial activity (in words, summary of Table 1) (S. aureus ATCC 13709 [1]) | Minimum inhibitory concentration, S. aureus ATCC 43300 [2] [µg/mL] | Minimum inhibitory concentration, S. aureus BK85 [3] [µg/mL] | Minimum inhibitory concentration, S. aureus RN4220 (S. aureus RN4220) [µg/mL] | Activity against the Rifampicin resistant variant of S. aureus ATCC13709 (in words) [4] | Minimum inhibitory concentration, S. aureus ATCC 13709 variant [4] [µg/mL] | Minimum inhibitory concentration, S. aureus ATCC 13709 + 50% Human Serum (S. aureus ATCC 13709 [5]) [µg/mL] | Minimum inhibitory concentration, S. aureus ATCC 13709 + 50% Mouse Serum (S. aureus ATCC 13709 [5]) [µg/mL] | Minimum inhibitory concentration, S. aureus ATCC 13709 + 50% Rat Serum (S. aureus ATCC 13709 [5]) [µg/mL] | Minimum inhibitory concentration, E. coli LBB925 [6] [µg/mL] | MIC (S. aureus ATCC 13709 [1]) [µg/mL] | MIC [2] [µg/mL] | MIC (S. aureus RN4220) [µg/mL] | MIC (S. aureus ATCC 13709 [5]; [9]) [µg/mL] | MIC (S. aureus ATCC 13709 [5]; [10]) [µg/mL] | MIC (S. aureus ATCC 13709 [5]; [11]) [µg/mL] | MIC [6] [µg/mL] | MIC [3] [µg/mL] | further results
CCN(CC)CC.CCN(CC)CC.CO[C@H]1/C=C/O[C@@]2(C)Oc3c(C)c(O)c4c(=O)c(c5oc6cc(N7CCN(CC(C)C)CC7)cc(O)c6nc-5c4c3C2=O)NC(=O)/C(C)=C\C=C\[C@H](C)[C@H](OC(=O)CCC(=O)NCCC(=O)NC(P(=O)(O)O)P(=O)(O)O)[C@@H](C)[C@@H](O)[C@@H](C)[C@H](OC(C)=O)[C@@H]1C [Compound 78, 21-O-(3-(2-((bisphosphonomethyl)carbamoyl)ethylcarbamoyl)propanoyl)-1′,4-Didehydro-1-deoxy-1,4-dihydro-3′-hydroxy-5′-[4-(2-methylpropyl)-1-piperazinyl]-1-oxorifamycin VIII] | 8 | near complete loss of activity | 8 | 16 | 16 | complete lack of activity | >128 | >128 | >128 | >128 | >128 | – | – | – | – | – | – | – | – | Regeneration of parent drug once bound to bone (in words) [7]: not able to regenerate; % Conversion of bone-bound prodrug to parent drug ([7]; 50% Rat Serum): 0.01%; % Conversion of bone-bound prodrug to parent drug ([7]; PBS): <lod; Impact of the medium on the rate of regeneration of parent drug (in words) ([7]; serum compared to PBS): significant acceleration
COc1c(N2C[C@@H]3CCCN[C@@H]3C2)c(F)cc2c(=O)c(C(=O)O)cn(C3CC3)c12 [Moxifloxacin, reference compound] | – | – | – | – | – | – | – | – | – | – | – | – | – | – | – | – | – | – | – | Measured bacterial titer, positive control ([8]; 10 mg/kg intravenously once, 1 h postinfection, 10 mg/kg): 2.36 ± 0.21 Log CFU/g of bone and 2.53 ± 0.39 Log CFU/g of bone and 2.59 ± 0.56 Log CFU/g of bone and 2.46 ± 0.52 Log CFU/g of bone and 2.56 ± 0.64 Log CFU/g of bone and 2.20 ± 0.33 Log CFU/g of bone and 2.32 ± 0.33 Log CFU/g of bone and 2.06 ± 0.04 Log CFU/g of bone
CO[C@H]1/C=C/O[C@@]2(C)Oc3c(C)c(O)c4c(=O)c(c5oc6cc(N7CCN(CCO)CC7)cc(O)c6nc-5c4c3C2=O)NC(=O)/C(C)=C\C=C\[C@H](C)[C@H](O)[C@@H](C)[C@@H](O)[C@@H](C)[C@H](OC(C)=O)[C@@H]1C [Compound 56, 1′,4-Didehydro-1-deoxy-1,4-dihydro-3′-hydroxy-5′-[4-(2-hydroxyethyl)-1-piperazinyl]-1-oxorifamycin VIII] | – | – | – | – | – | – | – | – | – | – | – | 0.00025 (≈ 0.269 nM) | 0.00025 (≈ 0.269 nM) | 0.00025 (≈ 0.269 nM) | 0.001 | 0.002 | 0.002 | 8 (≈ 8610 nM) | – | Measured bacterial titer ([8]; single dose 20 mg/kg parent drug equivalent, 2 days prior to infection): 3.61 ± 1.57 Log CFU/g of bone
CO[C@H]1/C=C/O[C@@]2(C)Oc3c(C)c(O)c4c(=O)c(c5oc6cc(N7CCNCC7)cc(O)c6nc-5c4c3C2=O)NC(=O)/C(C)=C\C=C\[C@H](C)[C@H](O)[C@@H](C)[C@@H](O)[C@@H](C)[C@H](OC(C)=O)[C@@H]1C [Compound 69, 1′,4-Didehydro-1-deoxy-1,4-dihydro-3′-hydroxy-5′-[1-piperazinyl]-1-oxorifamycin VIII] | – | – | – | – | – | – | – | – | – | – | – | 0.00048 (≈ 0.542 nM) | – | – | 0.0019 | 0.0019 | 0.0019 | 4 (≈ 4520 nM) | 0.00024 (≈ 0.271 nM) | –
CCN(CC)CC.CCN(CC)CC.CO[C@H]1/C=C/O[C@@]2(C)Oc3c(C)c(O)c4c(c3C2=O)C2=NC3(CCN(CC(C)C)CC3)NC2=C(NC(=O)/C(C)=C\C=C\[C@H](C)[C@H](OC(=O)CCCOC(=O)CCC(=O)NC(P(=O)(O)O)P(=O)(O)O)[C@@H](C)[C@@H](O)[C@@H](C)[C@H](OC(C)=O)[C@@H]1C)C4=O [Compound 54, 21-O-(4-((3-(bisphosphonomethyl)carbamoyl)propanoyloxy)butanoyl)-1′,4-didehydro-1-deoxy-1,4-dihydro-5′-(2-methylpropyl)-1-oxorifamycin XIV] | 64 | near complete loss of activity | 64 | 64 | 64 | complete lack of activity | >128 | >128 | >128 | >128 | >128 | – | – | – | – | – | – | – | – | Impact of serum on the MICs (in words) (S. aureus ATCC 13709 [5]): no impact
CO[C@H]1/C=C/O[C@@]2(C)Oc3c(C)c(O)c4c(O)c(c(/C=N/N5CCN(C)CC5)c(O)c4c3C2=O)NC(=O)/C(C)=C\C=C\[C@H](C)[C@H](O)[C@@H](C)[C@@H](O)[C@@H](C)[C@H](OC(C)=O)[C@@H]1C [Rifampicin, reference compound] | – | – | – | – | – | – | – | – | – | – | – | 0.008 (≈ 9.72 nM) | 0.008 (≈ 9.72 nM) | 0.008 (≈ 9.72 nM) | 0.062 | 0.125 | 0.125 | 8 (≈ 9720 nM) | 0.008 (≈ 9.72 nM) | MIC ([4]; Staphylococcus aureus, ATCC13709, read-out: Minimum inhibitory concentration, S. aureus ATCC 13709 variant): > 128 µg/mL
